Results reported in PubChem BioAssay (NCI).
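96-well plates; 48 h exposure; 5 concentrations. Endpoints by linear interpolation between flanking doses. Not reached: highest tested concentration assigned. GI50: concentration for 50% inhibition of growth. TGI denotes the concentration required for complete inhibition of growth.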

Columns and labels:
Assay in all cases: NCI tumour cell line growth inhibition, 48 h; in the data active = GI50 below about 0.43 µM; inactive = the rest
HOP-62 NSCLC = test system: HOP-62 NSCLC
SNB-19 CNS = test system: SNB-19 CNS
OVCAR-5 ovarian = test system: OVCAR-5 ovarian
UACC-257 melanoma = test system: UACC-257 melanoma
SK-MEL-2 melanoma = test system: SK-MEL-2 melanoma
BT-549 breast = test system: BT-549 breast
HCT-15 colon = test system: HCT-15 colon
A549 NSCLC = test system: A549 NSCLC
COLO 205 colon = test system: COLO 205 colon
SF-268 CNS = test system: SF-268 CNS
NCI-H460 lung = test system: NCI-H460 lung
SF-539 CNS = test system: SF-539 CNS
LOX IMVI melanoma = test system: LOX IMVI melanoma
OVCAR-8 ovarian = test system: OVCAR-8 ovarian
HCT-116 colon = test system: HCT-116 colon
MDA-MB-435 = test system: MDA-MB-435
UO-31 renal = test system: UO-31 renal
UACC-62 melanoma = test system: UACC-62 melanoma
HL-60(TB) leukemia = test system: HL-60(TB) leukemia
SK-MEL-5 melanoma = test system: SK-MEL-5 melanoma
A498 renal = test system: A498 renal
SK-MEL-28 melanoma = test system: SK-MEL-28 melanoma
EKVX NSCLC = test system: EKVX NSCLC
SNB-75 CNS = test system: SNB-75 CNS
U251 CNS = test system: U251 CNS
ACHN renal = test system: ACHN renal
SW-620 colon = test system: SW-620 colon
MCF7 breast = test system: MCF7 breast
OVCAR-3 ovarian = test system: OVCAR-3 ovarian
T-47D breast = test system: T-47D breast
MALME-3M melanoma = test system: MALME-3M melanoma
SN12C renal = test system: SN12C renal
KM12 colon = test system: KM12 colon
OVCAR-4 ovarian = test system: OVCAR-4 ovarian
TK-10 renal = test system: TK-10 renal
SF-295 CNS = test system: SF-295 CNS
HT29 colon = test system: HT29 colon
HOP-92 NSCLC = test system: HOP-92 NSCLC
CAKI-1 renal = test system: CAKI-1 renal
HS 578T breast = test system: HS 578T breast
NCI-H23 lung = test system: NCI-H23 lung
NCI-H226 lung = test system: NCI-H226 lung
RXF 393 renal = test system: RXF 393 renal
HCC-2998 colon = test system: HCC-2998 colon
NCI/ADR-RES ovarian = test system: NCI/ADR-RES ovarian
IGROV1 ovarian = test system: IGROV1 ovarian
786-0 renal = test system: 786-0 renal
SK-OV-3 ovarian = test system: SK-OV-3 ovarian
RPMI-8226 leukemia = test system: RPMI-8226 leukemia
NCI-H522 lung = test system: NCI-H522 lung
SR leukemia = test system: SR leukemia
K-562 leukemia = test system: K-562 leukemia
MDA-MB-231 breast = test system: MDA-MB-231 breast
DU-145 prostate = test system: DU-145 prostate
PC-3 prostate = test system: PC-3 prostate
CCRF-CEM leukemia = test system: CCRF-CEM leukemia
MOLT-4 leukemia = test system: MOLT-4 leukemia

CCN(CC)c1ccc2c(cc1=O)[C@@H](NC(C)=O)CCc1cc(OC)c(OC)c(OC)c1-2
0.579 µM: TGI (NCI-H522 lung)
0.5 µM: TGI (COLO 205 colon)
0.305 µM: TGI (MDA-MB-435)
1.56 µM: TGI (SK-MEL-5 melanoma)
> 100 µM: TGI (HOP-62 NSCLC) | TGI (SNB-19 CNS) | TGI (OVCAR-5 ovarian) | TGI (UACC-257 melanoma) | TGI (SK-MEL-2 melanoma) | TGI (HCT-15 colon) | TGI (A549 NSCLC) | TGI (SF-268 CNS) | TGI (NCI-H460 lung) | TGI (LOX IMVI melanoma) | TGI (OVCAR-8 ovarian) | TGI (HCT-116 colon) | TGI (UO-31 renal) | TGI (UACC-62 melanoma) | TGI (SK-MEL-28 melanoma) | TGI (EKVX NSCLC) | TGI (SNB-75 CNS) | TGI (U251 CNS) | TGI (ACHN renal) | TGI (SW-620 colon) | TGI (MCF7 breast) | TGI (T-47D breast) | TGI (MALME-3M melanoma) | TGI (SN12C renal) | TGI (KM12 colon) | TGI (OVCAR-4 ovarian) | TGI (TK-10 renal) | TGI (SF-295 CNS) | TGI (HOP-92 NSCLC) | TGI (CAKI-1 renal) | TGI (HS 578T breast) | TGI (NCI-H23 lung) | TGI (NCI-H226 lung) | TGI (RXF 393 renal) | TGI (HCC-2998 colon) | TGI (NCI/ADR-RES ovarian) | TGI (IGROV1 ovarian) | TGI (786-0 renal) | TGI (SK-OV-3 ovarian) | TGI (RPMI-8226 leukemia) | TGI (SR leukemia) | TGI (K-562 leukemia) | TGI (MDA-MB-231 breast) | TGI (PC-3 prostate) | TGI (CCRF-CEM leukemia) | TGI (MOLT-4 leukemia)
0.319 µM: TGI (HL-60(TB) leukemia)
inactive: GI50 (HOP-62 NSCLC) 0.563 µM | GI50 (OVCAR-5 ovarian) 2.45 µM | GI50 (UACC-257 melanoma) > 100 µM | GI50 (HCT-15 colon) 2.64 µM | GI50 (A549 NSCLC) 0.744 µM | GI50 (SF-268 CNS) 0.511 µM | GI50 (OVCAR-8 ovarian) 0.467 µM | GI50 (UO-31 renal) 6.72 µM | GI50 (SK-MEL-28 melanoma) > 100 µM | GI50 (EKVX NSCLC) 0.714 µM | GI50 (ACHN renal) 2.62 µM | GI50 (T-47D breast) > 100 µM | GI50 (MALME-3M melanoma) > 100 µM | GI50 (SN12C renal) 0.691 µM | GI50 (OVCAR-4 ovarian) 3.32 µM | GI50 (TK-10 renal) 65.2 µM | GI50 (HOP-92 NSCLC) 7.11 µM | GI50 (CAKI-1 renal) 4.62 µM | GI50 (HS 578T breast) 0.648 µM | GI50 (NCI-H23 lung) 0.578 µM | GI50 (NCI/ADR-RES ovarian) 14.3 µM | GI50 (IGROV1 ovarian) 0.51 µM | GI50 (786-0 renal) 0.622 µM | GI50 (MDA-MB-231 breast) 0.552 µM | GI50 (MOLT-4 leukemia) 0.511 µM
7.28 µM: TGI (BT-549 breast)
active: GI50 (SNB-19 CNS) 0.409 µM | GI50 (SK-MEL-2 melanoma) 0.275 µM | GI50 (BT-549 breast) 0.245 µM | GI50 (COLO 205 colon) 0.101 µM | GI50 (NCI-H460 lung) 0.359 µM | GI50 (SF-539 CNS) 0.217 µM | GI50 (LOX IMVI melanoma) 0.345 µM | GI50 (HCT-116 colon) 0.205 µM | GI50 (MDA-MB-435) 0.0594 µM | GI50 (UACC-62 melanoma) 0.311 µM | GI50 (HL-60(TB) leukemia) 0.0633 µM | GI50 (SK-MEL-5 melanoma) 0.302 µM | GI50 (A498 renal) 0.26 µM | GI50 (SNB-75 CNS) 0.321 µM | GI50 (U251 CNS) 0.407 µM | GI50 (SW-620 colon) 0.287 µM | GI50 (MCF7 breast) 0.148 µM | GI50 (OVCAR-3 ovarian) 0.25 µM | GI50 (KM12 colon) 0.282 µM | GI50 (SF-295 CNS) 0.277 µM | GI50 (HT29 colon) 0.331 µM | GI50 (NCI-H226 lung) 0.409 µM | GI50 (RXF 393 renal) 0.381 µM | GI50 (HCC-2998 colon) 0.347 µM | GI50 (SK-OV-3 ovarian) 0.407 µM | GI50 (RPMI-8226 leukemia) 0.288 µM | GI50 (NCI-H522 lung) 0.218 µM | GI50 (SR leukemia) 0.0529 µM | GI50 (K-562 leukemia) 0.224 µM | GI50 (DU-145 prostate) 0.368 µM | GI50 (PC-3 prostate) 0.366 µM | GI50 (CCRF-CEM leukemia) 0.213 µM
0.647 µM: TGI (OVCAR-3 ovarian)
